≈ marks a conversion by molar mass, not a printed value. Read-outs that look alike come from different tables or passages of the source. Where a SMILES comes first, the peptide text is derived from it. [ ]: non-standard residue; d: D form.
Legend:
[1] = test system: M. abscessus; assay: MIC against MDR M. abscessus isolates; assay type: cell-based, Mycobacterium abscessus; details: 7 days; for MIC: AST media (CAAT)
[2] = test system: S. maltophilia; assay: Time-kill assay in cystic fibrosis patient sputum, S. maltophilia; assay type: cell-based, Stenotrophomonas maltophilia
Text: (§1) Sputum from 5 cystic fibrosis patients was pooled. The resulting mixture was not filtered, as it was very dense and not amenable to sterilization by filtration. Sputum is known to be a complex mixture of DNA, carbohydrates, and lipids ([…], 2016). As used herein, the term “sputum” refers to the mucus present in the respiratory tract of an animal, such as a human. Sputum may increase in thickness due to the irritation or infection, including bacterial infection, and in some instances, may be expelled by the animal while coughing. In certain instances, cystic fibrosis may be characterized by the presence of a thick, sticky mucus or sputum present in the lungs of cystic fibrosis patients. The activity of GN370, AM1, AM2, AM3, and meropenem was determined in the sputum using a time-kill assay format as disclosed in Zhang et al., Antimicrobial peptide therapeutics for cystic fibrosis, Antimicrobial Agents Chemother. 2005; 49(7):2921-2927. […] Untreated controls were included in addition to pretreatment plating (t=0) for a baseline CFU determination. Activity was also determined in the absence of sputum for comparison to activity observed in the presence of sputum.

[3] = test system: P. aeruginosa; assay: Serial passage resistance development study, P. aeruginosa; assay type: cell-based, Pseudomonas aeruginosa; details: P. aeruginosa strain CFS 1292, Day 28
[4] = test system: A. ruhlandii; assay type: cell-based, Achromobacter ruhlandii
Experimental: (§2) The MBEC (after 2-hour treatments) was determined as described in Jones and Wozniak, PsI Produced by Mucoid Pseudomonas aeruginosa Contributes to the Establishment of Biofilms and Immune Evasion, Am. Soc. Microbiol. 2017, 8(3):e00864-17. Meropenem and tobramycin were included as controls and were both poorly active, with MBEC90 values of >256 μg/mL (data not shown).

[5] = test system: M. kansasii; assay: MIC against M. kansasii; assay type: cell-based, Mycobacterium kansasii; details: M. kansasi (ATCC 12478); CAAT media
[6] = test system: M. scrofulaceum; assay: MIC against M. scrofulaceum; assay type: cell-based, Mycobacterium scrofulaceum; details: M. scrofulaceum (ATCC 19981); CAAT media
[7] = test system: Mycobacterium species; assay type: cell-based
[8] = test system: M. tuberculosis; assay type: cell-based, Mycobacterium tuberculosis
[9] = test system: B. multivorans; assay: MIC by broth microdilution against B. multivorans; assay type: cell-based, Burkholderia multivorans; details: B. multivorans isolates
Experimental: (§3) MIC values were determined using a modification of the standard broth microdilution reference method defined by the Clinical and Laboratory Standards Institute (CLSI), CLSL. 2015. Methods for Dilution Antimicrobial Susceptibility Tests for Bacteria That Grow Aerobically; Approved Standard-10th Edition. Clinical and Laboratory Standards Institute, Wayne, PA. The modification was based on the replacement of Mueller Hinton Broth with either CAA media (with and without NaCl) or CAA supplemented with 2.5% human serum. MIC is the minimum concentration of peptide sufficient to suppress at least 80% of the bacterial growth compared to control.
(§4) Based on these nine most prevalent strains, direct lytic agents, including GN370, AM1, AM2, and AM3, were evaluated against various isolates from each of the 9 strains. MICs and MBECs (Example 3) were determined, and a sputum inhibition test was conducted, as described below in Example 5.
(§5) The MICs for were determined as described below using the broth microdilution method for meropenem, GN370, AM1, AM2, and AM3. The results are shown below in Tables 8-12.

[10] = test system: B. cenocepacia; assay type: cell-based, Burkholderia cenocepacia
Experimental: as §2

[11] = test system: B. cenocepacia; assay: MIC by broth microdilution against B. cenocepacia; assay type: cell-based, Burkholderia cenocepacia; details: B. cenocepacia isolates
Experimental: as §3, §4, §5

[12] = test system: P. aeruginosa
[13] = test system: M. intracellulare; assay: MIC against M. intracellulare; assay type: cell-based, Mycobacterium intracellulare; details: M. intracellulare (ATCC 13950); CAAT media
[14] = test system: A. dolens; assay type: cell-based, Achromobacter dolens
Experimental: as §2

[15] = test system: P. aeruginosa; assay: Time-kill assay in cystic fibrosis patient sputum, P. aeruginosa; assay type: cell-based, Pseudomonas aeruginosa
Text: as §1

[16] = test system: Achromobacter spp.; assay: MIC by broth microdilution against Achromobacter spp.; assay type: cell-based; details: Tables 8-12
Experimental: as §3, §5

SMILES: CC[C@H](C)[C@H](NC(=O)[C@@H](CCCNC(=N)N)NC(=O)[C@H](Cc1ccccc1)NC(=O)CNC(=O)CNC(=O)[C@@H](CCCNC(=N)N)NC(=O)[C@H](CCSC)NC(=O)[C@@H]1CCCN1C(=O)[C@@H](CCCNC(=N)N)NC(=O)[C@H](C)NC(=O)[C@@H](CCCNC(=N)N)NC(=O)[C@H](CC(C)C)NC(=O)[C@H](CC(N)=O)NC(=O)[C@@H](CCCNC(=N)N)NC(=O)[C@@H](CCCCN)NC(=O)[C@@H](CCCCN)NC(=O)[C@@H](NC(=O)[C@H](CC(N)=O)NC(=O)[C@@H](NC(=O)[C@H](C)NC(=O)CNC(=O)[C@@H](CCCNC(=N)N)NC(=O)[C@@H](NC(=O)[C@H](Cc1ccccc1)NC(=O)[C@@H](NC(=O)[C@@H](CCCCN)NC(=O)[C@@H](CCCNC(=N)N)NC(=O)[C@H](CO)NC(=O)[C@@H](CCCCN)NC(=O)[C@@H](CCCCN)NC(=O)[C@@H](CCCCN)NC(=O)[C@H](CO)NC(=O)[C@H](CC(C)C)NC(=O)[C@@H](CCCCN)NC(=O)[C@@H](CCCNC(=N)N)NC(=O)[C@@H](CCCNC(=N)N)NC(=O)[C@@H](CCCCN)NC(=O)[C@@H](N)CCSC)[C@@H](C)CC)[C@@H](C)O)C(C)C)C(C)C)C(=O)O [AM3] (H-M[dK][dR][dR][dK]LS[dK][dK][dK]S[dR][dK]IFT[dR]GAVNV[dK][dK][dR]NL[dR]A[dR]PM[dR]GGF[dR]I-OH; N-terminus and C-terminus assumed)
- activity (MIC) against M. abscessus ([1]; 5 clinical MDR strains and 1 ATCC strain, CAAT): highly active
- MIC ([1]; M. abscessus strain BK51402): 1 µg/mL (≈ 0.219 µM)
- MIC ([1]; M. abscessus strain BK51403 (ATCC 19977)): 4 µg/mL (≈ 0.875 µM)
- MIC ([1]; M. abscessus strain BK51408): 4 µg/mL (≈ 0.875 µM)
- MIC ([1]; M. abscessus strain BK55096): 2 µg/mL (≈ 0.438 µM)
- MIC ([1]; M. abscessus strain BK55691): 1 µg/mL (≈ 0.219 µM)
- MIC ([1]; M. abscessus strain BK58156): 1 µg/mL (≈ 0.219 µM)
- effect of sputum on antibacterial activity ([2]; 10% CF sputum vs no sputum): none of GN370, AM1, AM2, and AM3 was inhibited
- Log10 CFU/mL of sputum ([2]; absence of sputum, 1 hr): 2.3 Log10 CFU/mL of sputum
- Log10 CFU/mL of sputum ([2]; absence of sputum, 3 hr): 2.3 Log10 CFU/mL of sputum
- Log10 CFU/mL of sputum ([2]; absence of sputum, 24 hr): 2.3 Log10 CFU/mL of sputum
- Log10 CFU/mL of sputum ([2]; presence of 10% sputum, 1 hr): 2.3 Log10 CFU/mL of sputum
- Log10 CFU/mL of sputum ([2]; presence of 10% sputum, 3 hr): 2.3 Log10 CFU/mL of sputum
- Log10 CFU/mL of sputum ([2]; presence of 10% sputum, 24 hr): 2.3 Log10 CFU/mL of sputum
- killing by 1 hour, maintained at 24 hours ([2]; time-kill): complete killing
- change in MIC over serial passage [3]: no significant changes
- MBEC50 [4]: 16 µg/mL
- MBEC90 [4]: 16 µg/mL
- MBEC Range [4]: 1 to 32 µg/mL
- MIC [5]: 1 µg/mL (≈ 0.219 µM)
- MIC [6]: 2 µg/mL (≈ 0.438 µM)
- activity (MIC) against Mycobacterium species [7]: highest activity
- MIC ([8]; M. tuberculosis (ATCC 35817), (ADC, T) media): 8 µg/mL (≈ 1.75 µM)
- MIC ([8]; M. tuberculosis strain TN8109_LB (MDR), 7H9 broth, 20 days): 16 µg/mL (≈ 3.5 µM)
- MIC ([8]; M. tuberculosis strain TN8562_M33 (susc), 7H9 broth, 20 days): 16 µg/mL (≈ 3.5 µM)
- MIC ([8]; M. tuberculosis strain TN10525_LL (MDR), 7H9 broth, 20 days): 64 µg/mL (≈ 14 µM)
- MIC ([8]; M. tuberculosis strain TN10571_KY (MDR), 7H9 broth, 20 days): 16 µg/mL (≈ 3.5 µM)
- MIC ([8]; M. tuberculosis strain TN12657_KQ15 (IS), 7H9 broth, 20 days): 16 µg/mL (≈ 3.5 µM)
- MIC ([8]; M. tuberculosis strain TN13923_HD17 (susc), 7H9 broth, 20 days): 32 µg/mL (≈ 7 µM)
- MIC ([8]; M. tuberculosis strain TN18349_W738 (susc), 7H9 broth, 20 days): 4 µg/mL (≈ 0.875 µM)
- MIC ([8]; M. tuberculosis strain TN34503_001 (susc), 7H9 broth, 20 days): 16 µg/mL (≈ 3.5 µM)
- MIC50 [9]: > 128 µg/mL
- MIC90 [9]: > 128 µg/mL
- MBEC50 [10]: 16 µg/mL
- MBEC90 [10]: 32 µg/mL
- MBEC Range [10]: 1 to 32 µg/mL
- MIC50 [11]: > 128 µg/mL
- MIC90 [11]: > 128 µg/mL
- MIC50 ([12]; P. aeruginosa isolates): 0.06 µg/mL (≈ 0.0131 µM)
- MIC90 ([12]; P. aeruginosa isolates): 0.25 µg/mL (≈ 0.0547 µM)
- MIC Range ([12]; P. aeruginosa isolates, in µg/mL): 0.016-1
- MIC ([12]; P. aeruginosa test organism of the sputum time-kill assay): (MIC = 0.125)
- activity (MIC) against P. aeruginosa isolates ([12]; all tested isolates, Tables 8-12): highly active
- MIC [13]: 2 µg/mL (≈ 0.438 µM)
- MBEC50 [14]: 2 µg/mL
- MBEC90 [14]: 16 µg/mL
- MBEC Range [14]: 1 to 32 µg/mL
- effect of sputum on antibacterial activity ([15]; 10% CF sputum vs no sputum): not inhibited
- Log10 CFU/mL of sputum ([15]; absence of sputum, 1 hr): 2.3 Log10 CFU/mL of sputum
- Log10 CFU/mL of sputum ([15]; absence of sputum, 3 hr): 2.3 Log10 CFU/mL of sputum
- Log10 CFU/mL of sputum ([15]; absence of sputum, 24 hr): 2.3 Log10 CFU/mL of sputum
- Log10 CFU/mL of sputum ([15]; presence of 10% sputum, 1 hr): 2.3 Log10 CFU/mL of sputum
- Log10 CFU/mL of sputum ([15]; presence of 10% sputum, 3 hr): 2.3 Log10 CFU/mL of sputum
- Log10 CFU/mL of sputum ([15]; presence of 10% sputum, 24 hr): 2.3 Log10 CFU/mL of sputum
- killing by 1 hour, maintained by 24 hours ([15]; time-kill): complete killing
- activity (MIC) against Achromobacter spp. [16]: variably active

Source: US20240181022A1, “AMURINS LYSINS, AND LYSIN-ANTIMICROBIAL PEPTIDE (AMP) CONSTRUCTS ACTIVE AGAINST GRAM-NEGATIVE BACTERIA” (priority 2021, published 2024)
